Measured values published in patent publication US4570005A, “Process for the preparation of 2-arylpropyl ether or thioether derivatives” (priority 1980, dated 1986).
Where two headings read alike, the source gives them in different places.

Key:
tobacco cutworm [1] = experiment: Test 1: Effect on Tobacco Cutworm (leaf immersion), mortality after 24 hours; assay type: in vivo; settings: second-instar larvae, 25° C
Method in brief: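 Second-instar tobacco cutworm larvae were kept at 25 °C on air-dried sweet-potato leaves that had been immersed for 10 s in test dilutions of 100 or 20 ppm from an emulsifiable concentrate. Mortality was scored at 24 h as the mean of three cups.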

[2] = tested on: resistant green rice leafhopper (collected at Nakagawara); experiment: Test 3: Effect on Resistant Green Rice Leafhopper (collected at Nakagawara); assay type: in vivo, Nephotettix cincticeps Uhler (Green rice leafhopper); settings: Nephotettix cincticeps, 24 h, read-out: Mortality (%), Green Rice Leafhopper Collected at Nakagawara
Method in brief: (§1)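 Ten adult females per pot, either resistant (Nakagawara) or sensitive (Chigasaki), were caged on air-dried rice seedlings (2–3 leaves) sprayed at 3 ml/pot with 100 or 20 ppm of an emulsifiable concentrate dilution. Dead and living insects were counted after 24 hours; mortality is the mean of three pots.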

[3] = tested on: sensitive green rice leafhopper (collected at Chigasaki); experiment: whole plant or invertebrate; assay type: in vivo; settings: Nephotettix cincticeps, read-out: Mortality (%), Green Rice Leafhopper Collected at Chigasaki
Method in brief: as §1

diamond back moth = experiment: Test 4: Effect on Diamond Back Moth; assay type: in vivo; settings: Plutella
Method in brief: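 Compound formulated as an emulsifiable concentrate, diluted in water to 100 or 20 ppm and sprayed at 3 ml per cup onto cabbage leaves holding 10 third-instar larvae. Mortality counted after 24 hours; mean of three cups.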

green peach aphid = experiment: Test 5: Effect on Green Peach Aphid; assay type: in vivo; settings: Myzus persicae; 100 ppm; mortality class; 24 hours; read-out: Insecticidal Activity
Method: (§2) To a mixture of 20 parts of the compound of the present invention and 20 parts of Sorpol SM-200 (registered tradename for the product supplied by Toho Chemical Industrial Co., Ltd.) was added 60 parts of xylol, and the mixture was suffciently blended. The obtained emulsifiable concentrate was diluted at a predetermined concentration with distilled water, and the obtained dilution was used.
Seedlings (having 3 to 4 leaves) of an eggplant grown on a pot were inoculated with green peach aphids and the insects were allowed to grow. The number of the insects was counted. A chemical dilution having a concentration of 100 ppm, prepared in the same manner as described in Test 1, was applied with a spray gun at a rate of 10 ml per pot. Then, the pot was placed in a glass green house. After 24 hours, the number of living insects was counted and the mortality was calculated.
The test was made on three pots, and the average value was calculated. In Table 6, mark "A" indicates a mortality higher than 95%, mark "B" indicates a mortality of 80 to 95%, mark "C" indicates a mortality of 50 to 80%, and mark "D" indicates a mortality lower than 50%.

German cockroach = experiment: Test 7: Effect on German Cockroach; assay type: in vivo; settings: Blattella germanica
Method: as §2
The bottom face of a high Petri dish having a diameter of 9 cm and a height of 9 cm was treated with 50 or 10 mg/m^2 of a test compound and the dish was air-dried. In order to prevent the adults from escaping from the dish, the inner wall of the dish was treated with butter. Then, 10 male adults of German cockroach were set free in each dish, and the dish was placed in a thermostat chamber maintained at 25° C. After 24 hours, the number of agonized and killed adults was counted. The test was made on two dishes and the average value was calculated.

[4] = Test 9: Toxicity Test (acute oral toxicity, mice); settings: mouse, in vivo, po
Method: A predetermined amount of a solution or suspension of a test compound in corn oil was orally administered to male mice having a body weight of 19 to 23 g (0.2 ml per 10 g of the body weight). After 7 days, the number of killed mice was counted and the influences on the mice were examined.

tobacco cutworm [5] = experiment: Test 2: Tobacco Cutworm Larva Dipping Test, mortality after 24 hours; assay type: in vivo; settings: 24 h
Method in brief: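 Second- and fifth-instar larvae dipped 5 s in a water dilution of an emulsifiable concentrate at 100 or 20 ppm, blotted, then held on artificial diet at 25° C. Dead and living larvae counted after 24 hours; mortality averaged over three cups.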

Test 8: Fish Toxicity = assay type: in vivo; settings: carp, water; concentration at which 1/2 of the test fishes were killed within 48 hours; read-out: Fish Toxicity, TLm48
Method: A water tank having a width of 60 cm, a length of 30 cm and a height of 40 cm was filled with water, and 10 yearling carps having a body length of about 5 cm were set free in the tank and adapted to the environment in the tank. A test compound was applied so that the concentration in water was 10, 1 or 0.1 ppm. After 48 hours, the numbers of killed and living carps were counted and the influences on the fishes were examined.

[6] = 20 ppm, sensitive female adults, 24 hours
[7] = 100 ppm, sensitive female adults, 24 hours
[8] = 20 ppm, third-instar larvae, 24 hours, read-out: Mortality (%)
[9] = 100 ppm, third-instar larvae, 24 hours, read-out: Mortality (%)
[10] = 10 mg/m^2, male adults, agonized and killed after 24 hours, read-out: Mortality (%)
[11] = 50 mg/m^2, male adults, agonized and killed after 24 hours, read-out: Mortality (%)
[12] = read-out: Motality (%), Fifth-Instar Larvae
[13] = read-out: Motality (%), Second-Instar Larvae

## CC(C)(CSCc1cccc(Oc2ccc(F)cc2)c1)c1ccc(Cl)cc1 [Compound 9]
Tobacco cutworm [1]
  mortality at 20 ppm: 90%
  mortality at 100 ppm: 100%
[2]
  mortality at 20 ppm: 90%
  mortality at 100 ppm: 100%
[3]; [6]
  mortality at 20 ppm: 70%
[3]; [7]
  mortality at 100 ppm: 100%
Diamond back moth; [8]
  mortality at 20 ppm: 95%
Diamond back moth; [9]
  mortality at 100 ppm: 100%
Green peach aphid
  mortality at 100 ppm: > 95%
German cockroach; [10]
  mortality at 10 mg/m2: 100%
German cockroach; [11]
  mortality at 50 mg/m2: 100%
[4]
  LD50 at 168 h: > 500 mg/kg

## CCOc1ccc(C(C)(C)COCc2cccc(Oc3ccccc3)c2)cc1 [Compound 55, 3-Phenoxybenzyl 2-(4-ethoxyphenyl)-2-methylpropyl ether]
Tobacco cutworm [1]
  mortality at 20 ppm: 100%
  mortality at 100 ppm: 100%
Tobacco cutworm [5]; [12]
  mortality at 20 ppm: 100%
  mortality at 100 ppm: 100%
Tobacco cutworm [5]; [13]
  mortality at 20 ppm: 100%
  mortality at 100 ppm: 100%
[2]
  mortality at 20 ppm: 100%
  mortality at 100 ppm: 100%
[3]; 24 h
  mortality at 20 ppm: 100%
  mortality at 100 ppm: 100%
Diamond back moth; 24 h
  mortality at 20 ppm: 100%
  mortality at 100 ppm: 100%
Green peach aphid
  mortality at 100 ppm: > 95%
German cockroach; 24 h
  mortality at 10 mg/m2: 100%
  mortality at 50 mg/m2: 100%
Test 8: Fish Toxicity
  LC50 at 48 h: > 0.1 µg/mL
[4]
  LD50 at 168 h: > 500 mg/kg

## CC(C)(COCc1cccc(Oc2ccccc2)c1)c1cccc(C(F)(F)F)c1 [Compound 39, 3-Phenoxybenzyl 2-(3-trifluoromethylphenyl)-2-methylpropyl ether]
Tobacco cutworm [1]
  mortality at 20 ppm: 90%
  mortality at 100 ppm: 100%
[2]
  mortality at 20 ppm: 100%
  mortality at 100 ppm: 100%
[3]; [6]
  mortality at 20 ppm: 100%
[3]; [7]
  mortality at 100 ppm: 100%
Green peach aphid
  mortality at 100 ppm: > 95%
German cockroach; [10]
  mortality at 10 mg/m2: 90%
German cockroach; [11]
  mortality at 50 mg/m2: 100%
[4]
  LD50 at 168 h: > 500 mg/kg

## COP(=O)(OC)OC=C(Cl)Cl [(g), O,O-dimethyl-O-(2,2-dichlorovinyl)phosphate, reference compound]
Tobacco cutworm [5]; [12]
  mortality at 20 ppm: 10%
  mortality at 100 ppm: 30%
Tobacco cutworm [5]; [13]
  mortality at 20 ppm: 20%
  mortality at 100 ppm: 50%
Diamond back moth; 24 h
  mortality at 20 ppm: 0%
  mortality at 100 ppm: 60%
Green peach aphid
  mortality at 100 ppm: < 50%
German cockroach; 24 h
  mortality at 10 mg/m2: 40%
  mortality at 50 mg/m2: 100%

## CCC(C)(COCc1cccc(Oc2cccc(Cl)c2)c1)c1cccc(C)c1 (stereo not drawn) [Compound 29]
Green peach aphid
  mortality at 100 ppm: 80 to 95%
Test 8: Fish Toxicity
  LC50 at 48 h: > 10 µg/mL
[4]
  LD50 at 168 h: > 500 mg/kg

## CC(C)(COCc1cccc(Sc2ccccc2)c1)c1ccc(Cl)cc1 [Compound 15, 3-Phenylthiobenzyl 2-(4-chlorophenyl)-2-methylpropyl ether]
[2]
  mortality at 20 ppm: 90%
  mortality at 100 ppm: 100%
[3]; [6]
  mortality at 20 ppm: 70%
[3]; [7]
  mortality at 100 ppm: 100%
Green peach aphid
  mortality at 100 ppm: 80 to 95%
Test 8: Fish Toxicity
  LC50 at 48 h: > 10 µg/mL
[4]
  LD50 at 168 h: > 500 mg/kg

## COc1ccc(Oc2cccc(COCC(C)(C)c3ccc(SC)cc3)c2)cc1 [Compound 8, 3-(4-Methoxyphenoxy)benzyl 2-(4-methylthiophenyl)-2-methylpropyl ether]
Green peach aphid
  mortality at 100 ppm: 80 to 95%
Test 8: Fish Toxicity
  LC50 at 48 h: > 10 µg/mL
[4]
  LD50 at 168 h: > 500 mg/kg

## CCOc1ccc(C(C)(C)COCc2cccc(Oc3ccccc3)c2)cc1OCC [Compound 93, 3-Phenoxybenzyl 2-(3,4-diethoxyphenyl)-2-methylpropyl ether]
Tobacco cutworm [1]
  mortality at 20 ppm: 100%
  mortality at 100 ppm: 100%
[2]
  mortality at 20 ppm: 100%
  mortality at 100 ppm: 100%
[3]; [6]
  mortality at 20 ppm: 75%
[3]; [7]
  mortality at 100 ppm: 100%
Green peach aphid
  mortality at 100 ppm: > 95%
German cockroach; [10]
  mortality at 10 mg/m2: 100%
German cockroach; [11]
  mortality at 50 mg/m2: 100%
[4]
  LD50 at 168 h: > 500 mg/kg

## CC(C)(COCc1cccc(Oc2ccccc2F)c1)c1ccc(Cl)cc1 [Compound 14]
Tobacco cutworm [1]
  mortality at 20 ppm: 100%
  mortality at 100 ppm: 100%
[2]
  mortality at 20 ppm: 100%
  mortality at 100 ppm: 100%
[3]; [6]
  mortality at 20 ppm: 100%
[3]; [7]
  mortality at 100 ppm: 100%
Diamond back moth; [8]
  mortality at 20 ppm: 100%
Diamond back moth; [9]
  mortality at 100 ppm: 100%
Green peach aphid
  mortality at 100 ppm: > 95%
German cockroach; [10]
  mortality at 10 mg/m2: 100%
German cockroach; [11]
  mortality at 50 mg/m2: 100%
[4]
  LD50 at 168 h: > 500 mg/kg

## CCC(C)(COCc1cccc(Oc2ccccc2)c1)c1ccc(Cl)c(Cl)c1 (stereo not drawn) [Compound 52, 3-Phenoxybenzyl 2-(3,4-dichlorophenyl)-2-ethylpropyl ether]
[2]
  mortality at 20 ppm: 90%
  mortality at 100 ppm: 100%
[3]; [6]
  mortality at 20 ppm: 90%
[3]; [7]
  mortality at 100 ppm: 100%
Diamond back moth; [8]
  mortality at 20 ppm: 90%
Diamond back moth; [9]
  mortality at 100 ppm: 100%
Green peach aphid
  mortality at 100 ppm: > 95%
German cockroach; [10]
  mortality at 10 mg/m2: 90%
German cockroach; [11]
  mortality at 50 mg/m2: 100%
Test 8: Fish Toxicity
  LC50 at 48 h: > 10 µg/mL
[4]
  LD50 at 168 h: > 500 mg/kg

## CC(C)(COCc1coc(Cc2ccccc2)c1)c1ccc(Cl)cc1 [Compound 12, 5-Benzyl-3-furylmethyl 2-(4-chlorophenyl)-2-methylpropyl ether]
Green peach aphid
  mortality at 100 ppm: 80 to 95%
Test 8: Fish Toxicity
  LC50 at 48 h: > 10 µg/mL
[4]
  LD50 at 168 h: > 500 mg/kg

## CSc1ccc(C(C)(C)COCc2cccc(Oc3ccccc3)c2)cc1 [Compound 24, 3-Phenoxybenzyl 2-(4-methylthiophenyl)-2-methylpropyl ether]
[2]
  mortality at 20 ppm: 70%
  mortality at 100 ppm: 100%
[3]; [6]
  mortality at 20 ppm: 40%
[3]; [7]
  mortality at 100 ppm: 100%
Green peach aphid
  mortality at 100 ppm: > 95%
Test 8: Fish Toxicity
  LC50 at 48 h: > 10 µg/mL
[4]
  LD50 at 168 h: > 500 mg/kg

## CCC(C)(COCc1cccc(Oc2ccccc2)c1)c1ccc(C)cc1 (stereo not drawn) [Compound 53, 3-Phenoxybenzyl 2-(4-methylphenyl)-2-ethylpropyl ether]
[2]
  mortality at 20 ppm: 100%
  mortality at 100 ppm: 100%
[3]; [6]
  mortality at 20 ppm: 80%
[3]; [7]
  mortality at 100 ppm: 100%
Diamond back moth; [8]
  mortality at 20 ppm: 100%
Diamond back moth; [9]
  mortality at 100 ppm: 100%
Green peach aphid
  mortality at 100 ppm: 80 to 95%
Test 8: Fish Toxicity
  LC50 at 48 h: > 10 µg/mL
[4]
  LD50 at 168 h: > 500 mg/kg

## Cc1ccc(C(C)(C)COCc2cccc(Oc3ccccc3)c2)cc1Cl [Compound 73]
Tobacco cutworm [1]
  mortality at 20 ppm: 100%
  mortality at 100 ppm: 100%
Diamond back moth; [8]
  mortality at 20 ppm: 90%
Diamond back moth; [9]
  mortality at 100 ppm: 100%
Green peach aphid
  mortality at 100 ppm: > 95%
German cockroach; [10]
  mortality at 10 mg/m2: 100%
German cockroach; [11]
  mortality at 50 mg/m2: 100%
Test 8: Fish Toxicity
  LC50 at 48 h: > 10 µg/mL
[4]
  LD50 at 168 h: > 500 mg/kg

## CCCCCOc1ccc(C(C)(C)COCc2cccc(Oc3ccccc3)c2)cc1 [Compound 62, 3-Phenoxybenzyl 2-[4-(n-pentyloxy)phenyl]-2-methylpropyl ether]
Tobacco cutworm [1]
  mortality at 20 ppm: 80%
  mortality at 100 ppm: 100%
Diamond back moth; [8]
  mortality at 20 ppm: 50%
Diamond back moth; [9]
  mortality at 100 ppm: 100%
Green peach aphid
  mortality at 100 ppm: 80 to 95%
Test 8: Fish Toxicity
  LC50 at 48 h: > 1 µg/mL
[4]
  LD50 at 168 h: > 500 mg/kg
